Values of other authors, collected in patent US6277391A, “Composition and method of treating diseases and disorders of the prostate” (Samyang Corporation, priority 1998, dated 2001).

Details: 300 mg PO b.i.d., oral or intravenous, at the end of regimen; 60480 min

ofloxacin concentrations in the prostate: 1 to 4 µg/g
SMILES: CC1COc2c(N3CCN(C)CC3)c(F)cc3c(=O)c(C(=O)O)cn1c23 (stereo not shown) [ofloxacin]
